Target: T1, PARP-1 (Homo sapiens, UniProt P09874)
T1 construct: gene PARP1
Test: HT Universal Colorimetric PARP Assay Kit (Trevigen), in vitro PARP-1 activity
Format: biochemical

T1 sequence (P09874 2-1014): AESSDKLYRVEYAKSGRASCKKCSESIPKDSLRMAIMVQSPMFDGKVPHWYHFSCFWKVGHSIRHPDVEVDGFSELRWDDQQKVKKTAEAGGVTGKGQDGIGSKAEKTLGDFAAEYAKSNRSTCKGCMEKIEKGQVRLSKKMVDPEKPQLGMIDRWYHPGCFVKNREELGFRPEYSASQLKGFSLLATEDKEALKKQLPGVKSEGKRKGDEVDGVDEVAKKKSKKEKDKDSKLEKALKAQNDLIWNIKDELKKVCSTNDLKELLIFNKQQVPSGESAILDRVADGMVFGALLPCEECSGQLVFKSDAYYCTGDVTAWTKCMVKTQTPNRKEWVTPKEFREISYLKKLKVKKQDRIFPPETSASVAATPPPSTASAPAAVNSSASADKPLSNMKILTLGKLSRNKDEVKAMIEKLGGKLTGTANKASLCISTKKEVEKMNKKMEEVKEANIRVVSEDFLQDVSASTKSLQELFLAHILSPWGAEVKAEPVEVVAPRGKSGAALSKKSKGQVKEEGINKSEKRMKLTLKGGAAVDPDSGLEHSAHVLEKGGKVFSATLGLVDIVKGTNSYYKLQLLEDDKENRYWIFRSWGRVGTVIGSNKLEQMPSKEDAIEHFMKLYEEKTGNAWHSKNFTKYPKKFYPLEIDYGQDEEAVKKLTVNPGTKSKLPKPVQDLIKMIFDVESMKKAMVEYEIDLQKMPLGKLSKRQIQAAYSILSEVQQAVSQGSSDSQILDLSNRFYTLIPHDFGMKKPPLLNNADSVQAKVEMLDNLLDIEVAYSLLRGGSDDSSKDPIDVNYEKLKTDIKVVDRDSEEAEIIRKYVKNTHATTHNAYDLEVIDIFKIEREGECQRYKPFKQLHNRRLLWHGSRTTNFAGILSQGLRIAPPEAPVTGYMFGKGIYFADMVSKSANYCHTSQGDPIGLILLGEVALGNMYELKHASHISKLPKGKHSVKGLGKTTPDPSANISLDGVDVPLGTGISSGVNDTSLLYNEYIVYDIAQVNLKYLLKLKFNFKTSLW

COc1ccc(-c2cc3cc(OC)cc(O)c3o2)cc1 [HDAB]
IC50: 154 µM
